Data set [1] concerns ILA1 CTL. As to the kind of experiment: pMHCI tetramer staining of ILA1 CTL clone after PKI pre-treatment (flow cytometry). In kind it is cell-based, human. The note with it: for enhancement of tetramer staining after PKI pre-incubation: ILA1 CTL, data not shown. In general terms: A flow cytometer gives signals particle by particle.
Data set [2] is described as follows: Shelf-life of working solution. The note with it: 100 nM in PBS. The class given is physicochemical. The protocol:
Biological activity was tested in a cell death titration assay on BA/F3 bcr-abl cells as described previously (Magnusson et al., 2002). […] The 1 mM DMSO stock was diluted 1/10,000 in PBS on the day of experimentation to achieve a working solution of 100 nM; subsequent ½ dilution yielded a final concentration of 50 nM in cellular assays unless stated otherwise. The 100 nM working solution was always made up on the day of experimentation as the shelf-life of this solution is short (˜days). Staurosporine (Biomol), Lck inhibitor II (Calbiochem), genestein (calbiochem), herbimycin A (Calbiochem), PP2 (Calbiochem) and PP3 (Calbiochem) were dissolved and stored at −20° C. in DMSO. PKIs were dissolved in PBS prior to use and tested at concentrations of 1 nM, 3 nM, 5 nM, 10 nM, 20 nM, 50 nM, 100 nM, 250 nM, 500 nM and 1 μM.

Data set [3] has as its system ILA1 CTL. As to the kind of experiment: pMHCI tetramer on-rate experiment. The settings on record: dasatinib+tetramer; 50 nM 30 minutes 37° C.; HLA A2/hTERT540-548 tetramer.
Data set [4] concerns antigen-specific CD8+ T-cells in PBMC. As to the kind of experiment: pMHCI tetramer staining of PBMC directly ex vivo. In kind it is cell-based, human.
Data set [5] concerns tetramer-positive CD3+CD8+ T-cells. In kind it is cell-based, human. The protocol:
. It is known that pMHCI tetramer-induced signaling can trigger cell death (Purbhoo et al., 2001; Xu et al., 2001; Guillaume et al., 2003; Cebecauer et al., 2005). Cell death induced by tetramer staining was assessed using the amine-reactive viability dye GrViD at the end of the staining procedure, which is spectrally distinct from ViViD. PBMC were stained with ViViD to identify and allow exclusion of dead and dying cells prior to the addition of pMHCI tetramer; GrVID staining was performed after pMHCI tetramer and surface antibody staining. Data were acquired on a BD LSR II flow cytometer and analyzed using FlowJo software. ViViD^±, CD14^+ and CD19^+ cells were excluded from the analysis and the frequency of GrViD-positive cells was assessed in the tetramer-positive CD3+CD8^+ T-cell populations. Representative flow profiles are shown here for CD^+T-cells specific for the HLA A2-restricted epitopes CMV pp65495-503 ([…](SEQ ID NO:3)) and EBV BMLFI259-267 ([…] SEQ ID NO:4)). […]. […] Stained PBMC were acquired on a BD LSR II (Becton Dickinson Immunocytometry Systems, San Jose, Calif., USA) and analyzed using FlowJo software (Tree Star, Inc., Ashland, Oreg., USA).

Data set [6] deals with ILA1 CTL. As to the kind of experiment: TCR and CD8 expression levels at the CTL cell surface. The class given is cell-based, human. The note with it: 50 nM dasatinib 37° C.
The next data set deals with Mel13 CTL. As to the kind of experiment: Antigen-induced TCR downregulation. The settings on record: 50 nM dasatinib; peptide-pulsed C1R-A2 B cells, 4 hours.
A further data set concerns naïve murine F5 TCR CTL. As to the kind of experiment: H2-Db/[…] tetramer staining of F5 TCR transgenic splenocytes. In kind it is cell-based, mouse. The note with it: 50 nM dasatinib 30 minutes. The source says: C. […] Samples were washed with PBS before flow cytometric analysis.
In data set [7] the test system is CTL lines (Melan-A/Mart-1 26-35 and influenza matrix M1 58-66). Description: Cognate tetramer staining of HLA A2-restricted CTL lines expanded from PBMC. The class given is cell-based, human. The settings on record: 50 nM dasatinib.
The subject of the next data set is T-cell clones. Description: Recovery of responsiveness to antigen after drug removal. In kind it is cell-based. The settings on record: T-cell clones incubated in 50 nM dasatinib for 24 hours; data not shown.
For data set [8], the system named is HLA DR*0101-restricted CD4+ T-cell clone C6. The settings on record: 50 nM dasatinib 30 minutes.
The test system of the next data set is T-cells. The note with it: cited from earlier work.
In data set [9] the target is IE6 TCR (on CTL clone IE6).

“And” between values parts separate entries of the source, which are not always exact repeats. Equal entries are not always repeated. “Also recorded” adds a separate entry of the source.

The values that follow come from patent publication US9404916B2, “Use of a protein kinase inhibitor to detect immune cells, such as T cells” (University College Cardiff Consultants Limited, priority 2008, dated 2016).

As to `CC(C)(C)n1nc(-c2ccc(Cl)cc2)c2c(N)ncnc21` [PP2], the “enhancement of tetramer staining after PKI pre-incubation” value (shortened to “enhancement of tetramer staining”) with ILA1 CTL [1] is recorded as “moderate increase”.

Turning to `Nc1ncnc2c1cnn2-c1ccccc1` [PP3], the “enhancement of tetramer staining” value with ILA1 CTL [1] is on record as “no significant enhancement”.

As for `Cc1nc(Nc2ncc(C(=O)Nc3c(C)cccc3Cl)s2)cc(N2CCN(CCO)CC2)n1` [dasatinib, N-(2-chloro-6-methyl-phenyl)-2-(6-(4-(2-hydroxyethyl)-piperazin-1-yl)-2-methylpyrimidin-4-ylamino)thiazole-5-carboxamide], the “shelf-life of 100 nM working solution” value in data set [2] was “short”. Further, in the data set on ILA1 CTL [3], the “tetramer on-rate, fast rate” value came out at 0.42 min⁻¹ and the “tetramer on-rate, slow rate” value was 0.06 min⁻¹. Further, in the data set on ILA1 CTL [1], the “increase in pMHCI tetramer staining” value is listed as 60% and the “increase in pMHCI tetramer staining intensity” value turned out to be 89%. The “pMHCI staining intensity and percentage of antigen-specific CD8+ T-cells” value in data set [4] was “substantial increase”. In addition, the “frequency of GrViD-positive dead cells within the tetramer-positive population” value in [5] was “always lower; also recorded: reduced”. The “time until significant increases in TCR and CD8 levels” value in the data set with ILA1 CTL [6] was over 30 min. The “antigen-induced TCR downregulation from the CTL surface” value in the data set on Mel13 CTL was “block antigen-induced TCR downregulation”. Besides, the “pMHCI tetramer staining of naïve murine F5 TCR CTL directly ex vivo” value in the data set on naïve murine F5 TCR CTL is recorded as “enhanced”. Moreover, in data set [7], the “increase in fluorescence intensity of T-cells that bound tetramer weakly” value was over 20 fold and the “increase in staining intensity of all cognate CD8+ T-cells” value is given as “at least 2 fold”. For the same compound, in the data set on T-cell clones, the “time to regain responsiveness to antigen after drug removal” value was at most 1 h. Moreover, the “pMHCII tetramer staining of CD4+ T-cell clone” value in data set [8] is “enhanced”. The “concentrations not toxic to T-cells in the short term” value in the data set on T-cells was under 100 nM.

On to `O=c1c(-c2ccc(O)cc2)coc2cc(O)cc(O)c12` [genestein], for which, in the data set with ILA1 CTL [1], the “enhancement of tetramer staining” value is given as “no significant enhancement”.

On to `CO[C@H]1[C@@H](OC)C[C@H](C)[C@@H](OC)C2=CC(=O)C=C(NC(=O)/C(C)=C/C=C\[C@H](OC)[C@@H](OC(N)=O)/C(C)=C/[C@@H]1C)C2=O` [herbimycin, herbimycin A], for which the “enhancement of tetramer staining” value in the data set on ILA1 CTL [1] is on record as “no significant enhancement”.

As for `CN[C@@H]1C[C@H]2O[C@@](C)([C@@H]1OC)n1c3ccccc3c3c4c(c5c6ccccc6n2c5c31)C(=O)NC4` [staurosporine], in the data set on ILA1 CTL [1], the “enhancement of tetramer staining” value is recorded as “no significant enhancement”.

“HLA A2 presenting PPI15-24 peptide on pulsed target cells (from UniProt P61769 21-119) (peptide-MHC)” gave a % TNFα-positive cells (intracellular cytokine staining, TNF-APC against SSC-Height, 6 h with PPI peptide) in data set [9] of 30.9%.

Consider “HLA A2/PPI15-24 tetramer (from UniProt P61769 21-119) (peptide-MHC)”, for which the MFI in the data set with Short term line was 217 and 347.
